The record followed here is patent US20030225081A1, “Pyridazinones and triazinones and medicinal use thereof” (priority 2000, published 2003).

This assay relates to AMPA receptor. Briefly: Suppressing action to calcium influx into nerve cells induced by AMPA. The class given is cell-based. The settings on record: Fura2-AM, stimulation with 2 μM AMPA, primary culture of rat embryo cerebral cortex nerve cells, 1 μM MK-801. The text has this: Suppressing Action to Calcium Influx into Nerve Cells Induced by AMPA
The suppressing action of the compounds of the present invention to calcium influx into nerve cells induced by AMPA was investigated using the primary culture system of nerve cells of cerebral cortex of embryo of rat.
Cerebral cortex was cut out from the brain of rat of gestational 18 days and treated with trypsin and DNase to disperse the cells. The cells were flown by MEM containing 10% of serum, sown in a culture bottle and astrocytes were proliferated. The astrocytes were re-dispersed by trypsin and sown in a 96-well plate. After incubation for one week, it was confirmed that the astrocytes covered all over the bottom and then the nerve cells of cerebral cortex which was dispersed by the above method were sown thereupon. After incubation for 24 hours, the medium was changed, the incubation was carried out for one week and, after that, the medium was changed to that containing 1 μM of MK-801. Nerve cells which were incubated for not shorter than 8 to 10 days were used.
Calcium influx into the cells was measured using Fura2-AM which was a calcium-sensitive fluorescent dye. It was treated in a medium containing Fura2-AM for 1 hour, incorporated into the cells, exchanged to a Tyrode solution containing 1 μM MK-801 and stimulation was carried out using 2 μM AMPA. Change in the amount of calcium flown into the cells were measured as the change in the fluorescent intensity at the exciting wave length of 340/380 nm. […] As the control compound, GYKI52466 (Le Peillet, et al., Brain Res., 571, 115, 1992) was used.
Broadly, the IC50 is the point on the concentration scale where inhibition reaches its midpoint. Regarding `O=C1N(c2ccccc2O)CC(c2ccccn2)=NN1c1ccccc1Br` [Example 86, 2-(2-Bromophenyl)-4-(2-hydroxyphenyl)-6-(2-pyridyl)-4,5-dihydro-1,2,4-triazin-3 (2H)-one], the IC50 was 100 nM.

In the case of `COc1ccccc1C1CC(c2ccccn2)=NN(c2ccccc2C#N)C1=O` (centres unmarked) [Example 39, 2-(2-Cyanophenyl)-4-(2-methoxyphenyl)-6-(2-pyridyl)-4,5-dihydro-3 (2H)-pyridazinone], the IC50 was determined as 50 nM.

As for `N#Cc1ccccc1-n1nc(-c2ccccn2)cc(-c2ccccc2O)c1=O` [Example 42, 2-(2-Cyanophenyl)-4-(2-hydroxyphenyl)-6-(2-pyridyl)-3 (2H)-pyridazinone], the IC50 came to 100 nM.

As to `COc1ccccc1C1=NN(c2ccccc2Br)C(=O)N(c2ccccn2)C1` [Example 92, 2-(2-Bromophenyl)-6-(2-methoxyphenyl)-4-(2-pyridyl)-4,5-dihydro-1,2,4-triazin-3 (2H)-one], the IC50 came to 100 nM.

On to `N#Cc1ccccc1N1N=C2c3ccccc3OCC2C(c2cccnc2)C1=O` (centres unmarked) [Example 49, 2-(2-Cyanophenyl)-4-(3-pyridyl)-2,3,4,4a-tetrahydro-5H-(1) benzopyrano[4,3-c]pyridazin-3-one], for which the IC50 turned out to be 70 nM.

With `COc1ccccc1-c1cc(-c2ccccn2)nn(-c2ccccc2C#N)c1=O` [Example 40, 2-(2-Cyanophenyl)-4-(2-methoxyphenyl)-6-(2-pyridyl)-3 (2H)-pyridazinone], the IC50 came to 100 nM.

In the case of `O=c1c(-c2ccccc2OS(=O)(=O)C(F)(F)F)cc(-c2ccccn2)nn1-c1ccccc1` [Example 55, 2-Phenyl-6-(2-pyridyl)-4-(2-trifluoromethylsulfonyloxyphenyl)-3 (2H)-pyridazinone], the IC50 worked out at 800 nM.

In the case of `N#Cc1ccccc1-n1nc(-c2ccccn2)cc(-c2ccccc2Br)c1=O` [Example 47, 4-(2-Bromophenyl)-2-(2-cyanophenyl)-6-(2-pyridyl)-3 (2H)-pyridazinone], the IC50 worked out at 200 nM.

Take `N#Cc1ccccc1N1N=C(c2ccccn2)CN(c2ccccc2O)C1=O` [Example 96, 2-(2-Cyanophenyl)-4-(2-hydroxyphenyl)-6-(2-pyridyl)-4,5-dihydro-1,2,4-triazin-3 (2H)-one]: the IC50 worked out at 600 nM.

For `Cc1cccc(-n2nc(-c3ccccn3)cc(-c3cccnc3)c2=O)c1` [Example 64, 2-(3-Tolyl)-4-(3-pyridyl)-6-(2-pyridyl)-3 (2H)-pyridazinone], the IC50 amounted to 700 nM.

On to `N#Cc1ccccc1N1N=C(c2ccccc2O)CN(c2ccccc2)C1=O` [Example 93, 2-(2-Cyanophenyl)-6-(2-hydroxyphenyl)-4-phenyl-4,5-dihydro-1,2,4-triazin-3 (2H)-one], for which the IC50 amounted to 30 nM.

`COc1ccccc1N1N=C(c2ccccn2)CC(c2ccccc2)C1=O` (centres unmarked) [Example 26, 2-(2-Methoxyphenyl)-4-phenyl-6-(2-pyridyl)-4,5-dihydro-3 (2H)-pyridazinone]: the IC50 amounted to 300 nM.

In the case of `O=C1N(c2cccnc2)CC(c2ccccn2)=NN1c1ccccc1` [Example 109, 2-Phenyl-6-(2-pyridyl)-4-(3-pyridyl)-4,5-dihydro-1,2,4-triazin-3 (2H)-one], the IC50 was determined as 300 nM.

As for `COc1ccccc1C1=NN(c2ccccc2Br)C(=O)N(c2ccsc2)C1` [Example 108, 2-(2-Bromophenyl)-6-(2-methoxyphenyl)-4-(thiophen-3-yl)-4,5-dihydro-1,2,4-triazin-3 (2H)-one], the IC50 is 4000 nM.

In the case of `O=C1N(c2ccccc2)CC(c2ncccn2)=NN1c1ccccc1Cl` [Example 129, 2-(2-Chlorophenyl)-4-phenyl-6-(2-pyrimidinyl)-4,5-dihydro-1,2,4-triazin-3 (2H)-one.], the IC50 is 3000 nM.

Regarding `COc1cccc(-c2cc(-c3ccccn3)nn(-c3ccccc3Br)c2=O)c1` [Example 52, 2-(2-Bromophenyl)-4-(3-methoxyphenyl)-6-(2-pyridyl)-3 (2H)-pyridazinone], the IC50 was found to be 200 nM.

Consider `N#Cc1ccccc1-n1nc(-c2ccccn2)cc(-c2ccccc2)c1=O` [Example 43, 2-(2-Cyanophenyl)-4-phenyl-6-(2-pyridyl)-3 (2H)-pyridazinone], for which the IC50 worked out at 100 nM.

Regarding `COc1ccccc1C1=NN(c2ccccc2)C(=O)N(c2ccccc2C#N)C1` [Example 98, 4-(2-Cyanophenyl)-6-(2-methoxyphenyl)-2-phenyl-4,5-dihydro-1,2,4-triazin-3 (2H)-one], the IC50 worked out at 400 nM.

For the molecule `COc1ccccc1C1CC(c2ccccn2)=NN(c2ccccn2)C1=O` (centres unmarked) [Example 22, 4-(2-Methoxyphenyl)-2-(2-pyridyl)-6-(2-pyridyl)-4,5-dihydro-3 (2H)-pyridazinone], the IC50 came to 2700 nM.

Regarding `O=c1c(-c2ccccc2)cc(-c2ncccn2)nn1-c1cccnc1` [Example 75, 2-(3-Pyridyl)-4-phenyl-6-(2-pyrimidinyl)-3 (2H)-pyridazinone], the IC50 was 700 nM.

Regarding `N#Cc1ccccc1-n1nc2c(c(-c3ccccc3)c1=O)COc1ccccc1-2` [Example 7, 2-(2-Cyanophenyl)-4-phenyl-2,3-dihydro-5H-(1)benzopyrano[4,3-c]pyridazin-3-one], the IC50 was found to be 200 nM.

Regarding `O=C1C(c2ccccc2)CC(c2ccccn2)=NN1c1ccccc1Br` (centres unmarked) [Example 19, 2-(2-Bromophenyl)-4-phenyl-6-(2-pyridyl)-4,5-dihydro-3 (2H)-pyridazinone], the half-inhibitory concentration (IC50) came out at 60 nM.

With `O=c1c(-c2ccccc2O)cc(-c2ccccn2)nn1-c1ccccc1` [Example 32, 4-(2-Hydroxyphenyl)-2-phenyl-6-(2-pyridyl)-3 (2H)-pyridazinone], the IC50 was determined as 100 nM.

With `O=C1N(c2cc(O)ccc2O)CC(c2ccccc2O)=NN1c1ccccc1Br` [Example 94, 2-(2-Bromophenyl)-4-(2,5-dihydroxyphenyl)-6-(2-hydroxyphenyl)-4,5-dihydro-1,2,4-triazin-3 (2H)-one], the IC50 is 900 nM.

Take `N#Cc1ccccc1N1N=C(c2ccccn2)CN(c2cccc(N)c2)C1=O` [Example 128, 2-(2-Cyanophenyl)-4-(3-aminophenyl)-6-(2-pyridyl)-4,5-dihydro-1,2,4-triazin-3 (2H)-one]: the IC50 was 100 nM.

As for `O=C1C(c2ccc(O)cc2)CC(c2ccccn2)=NN1c1ccccc1Br` (centres unmarked) [Example 30, 2-(2-Bromophenyl)-4-(4-hydroxyphenyl)-6-(2-pyridyl)-4,5-dihydro-3 (2H)-pyridazinone], the IC50 was found to be 200 nM.

Take `O=C1C(c2ccccc2Br)CC(c2ccccn2)=NN1c1ccccc1` (centres unmarked) [Example 25, 4-(2-Bromophenyl)-2-phenyl-6-(2-pyridyl)-4,5-dihydro-3 (2H)-pyridazinone]: the IC50 came out at 200 nM.

Turning to `N#Cc1ccccc1N1CC(c2ccccn2)=NN(c2ccccc2Br)C1=O` [Example 111, 2-(2-Bromophenyl)-4-(2-cyanophenyl)-6-(2-pyridyl)-4,5-dihydro-1,2,4-triazin-3 (2H)-one], the IC50 is 400 nM.

Turning to `COc1ccc(Br)cc1C1CC(c2ccccn2)=NN(c2ccccc2Br)C1=O` (centres unmarked) [Example 16, 2-(2-Bromophenyl)-4-(3-bromo-6-methoxyphenyl)-6-(2-pyridyl)-4,5-dihydro-3 (2H)-pyridazinone], the IC50 is 700 nM.

Turning to `COc1ccccc1N1CC(c2ccccn2)=NN(c2ccccc2C#N)C1=O` [Example 87, 2-(2-Cyanophenyl)-4-(2-methoxyphenyl)-6-(2-pyridyl)-4,5-dihydro-1,2,4-triazin-3 (2H)-one], the IC50 stood at 50 nM.

On to `COc1ccc(Br)cc1-c1cc(-c2ccccn2)nn(-c2ccccc2C#N)c1=O` [Example 44, 2-(2-Cyanophenyl)-4-(3-bromo-6-methoxyphenyl)-6-(2-pyridyl)-3 (2H)-pyridazinone], for which the IC50 was 200 nM.

For the molecule `COc1ccccc1C1CC(c2ccccn2)=NN(c2ccccc2)C1=O` (centres unmarked) [Example 18, 4-(2-Methoxyphenyl)-2-phenyl-6-(2-pyridyl)-4,5-dihydro-3 (2H)-pyridazinone], the IC50 is 100 nM.

In the case of `O=C1N(c2cc(O)ccc2O)CC(c2ccccc2O)=NN1c1ccccc1` [Example 95, 4-(2,5-Dihydroxyphenyl)-6-(2-hydroxyphenyl)-2-phenyl-4,5-dihydro-1,2,4-triazin-3 (2H)-one], the IC50 stood at 50 nM.

As to `O=C1C(c2ccccc2)CC(c2ccccc2)=NN1c1ccccn1` (centres unmarked) [Example 21, 4,6-Diphenyl-2-(2-pyridyl)-4,5-dihydro-3 (2H)-pyridazinone], the IC50 was found to be 500 nM.

Turning to `CN(C)CCOc1ccccc1C1=NN(c2ccccc2Br)C(=O)N(c2ccccc2)C1` [Example 91, 2-(2-Bromophenyl)-6-(2-dimethylaminoethoxyphenyl)-4-phenyl-4,5-dihydro-1,2,4-triazin-3 (2H)-one], the IC50 stood at 300 nM.

Consider `O=C1N(c2ccccc2)CC(c2ccccc2)=NN1c1ccccc1Br` [Example 112, 2-(2-Bromophenyl)-4,6-diphenyl-4,5-dihydro-1,2,4-triazin-3 (2H)-one], for which the IC50 was 300 nM.

With `N#Cc1ncccc1-n1nc(-c2ncccn2)cc(-c2ccccc2)c1=O` [Example 81B, 2-(2-Cyanopyridin-3-yl)-4-phenyl-6-(2-pyrimidinyl)-3 (2H)-pyridazinone], the IC50 was found to be 700 nM.

With `Cc1cccc(N2CC(c3ccccn3)=NN(c3ccccc3Br)C2=O)c1` [Example 124, 2-(2-Bromophenyl)-4-(3-tolyl)-6-(2-pyridyl)-4,5-dihydro-1,2,4-triazin-3 (2H)-one], the IC50 came out at 200 nM.
